Here are results for 23 molecules from US8791106B2, “Fused ring pyridine compound” (Astellas Pharma Inc., priority 2010, dated 2014).

For assay [1], the target named is T1, human CB2 (Homo sapiens, UniProt P34972).
T1 construct: expressed in transfected cells; host or cells: CHO cells
Put plainly: Test on inhibition of human CB2-mediated cyclic AMP (cAMP) production. To be noted: 30 nM test substance; forskolin 0.5 μM; human CB2-expressing CHO cells; 30 minutes at room temperature; read-out: Inh(%): inhibition rate of cAMP increase. The format is cell-based. As for the experimental part:
This test was performed using CHO cells caused to express human CB2 (“Molecular Pharmacology”, 1995, Vol. 48, pp 443-450).
A human CB2-expressing CHO cell (2.5×10^3/mL) suspension and an assay medium supplemented with a test substance and forskolin (final concentration of 0.5 μM) were mixed together in equal amounts, followed by incubation for 30 minutes at room temperature, and then a 0.6% Triton X-100 solution was added thereto, thereby obtaining a cell lysate. A cAMP concentration in the cell lysate was measured using a cAMP kit (manufactured by Cisbio International). The assay medium was obtained by supplementing α-MEM manufactured by Invitrogen with 0.02% CHAPS, 1 mM isobutylmethylxanthine, and 0.5 mg/mL bovine serum albumin. The cAMP concentration in a forskolin-free cell suspension was regarded as 0% of increase in cAMP, and the cAMP concentration in a forskolin-added cell suspension was regarded as a 100% increase in cAMP, thereby allowing calculation of the inhibition rate of intracellular cAMP increase in 30 nM test substance.
In the table, Ex represents the example number of a test compound described later, and Inh represents inhibition rate of cAMP increase.

Assay [2] concerns adjuvant-induced arthritis rat. The experiment in a line: Effect of inhibition of hind paw weight distribution in adjuvant-induced arthritis rat. The class given is in vivo. To be noted: oral, female Lewis rats, day after adjuvant, Vehicle group 0%, Normal group 100%, read-out: Inhibition rate (%) of hind paw load difference. As for the experimental part:
For this test, female Lewis rats (7- to 8-weeks-old) were used. 50 μL of killed Mycobacterium tuberculosis H37 Ra (manufactured by DIFCO MICROBIOLOGY) suspended in liquid paraffin at a concentration of 10 mg/mL was subcutaneously administered to the right hind footpad. On the next day, the test substance was administered orally, and after some time, the load on the left and right hind paws was measured using an Incapacitance Tester (manufactured by Linton Instruments), thereby calculating a difference in the load between left and right. The load difference of a Vehicle-administered group was regarded as an inhibition rate of 0%, and the load difference of a Normal group was regarded as an inhibition rate of 100%, thereby allowing calculation of the inhibition rate of the test substance.
In the table, Ex represents an example number of a test compound described later, and values in the parenthesis indicates a dose.

Broadly, the inhibition is the relative decrease from the control value, in per cent.

T1 sequence (P34972 whole entry): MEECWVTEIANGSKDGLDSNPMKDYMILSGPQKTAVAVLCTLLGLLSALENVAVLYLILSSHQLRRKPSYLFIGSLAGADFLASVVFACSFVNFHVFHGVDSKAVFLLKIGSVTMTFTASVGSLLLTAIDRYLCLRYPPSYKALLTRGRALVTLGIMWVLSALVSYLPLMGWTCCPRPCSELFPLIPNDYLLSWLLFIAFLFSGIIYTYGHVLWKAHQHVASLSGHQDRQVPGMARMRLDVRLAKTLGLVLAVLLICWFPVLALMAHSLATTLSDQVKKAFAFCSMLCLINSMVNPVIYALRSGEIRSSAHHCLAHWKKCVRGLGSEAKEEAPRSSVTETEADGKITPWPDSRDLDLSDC

As to `O=C(c1ncc(Nc2ccc(F)c(Cl)c2)c2c1C1CCC2C1)N1CCS(=O)(=O)CC1` (stereo not shown) [Example 59], the inhibition at 0.03 µM in assay [1] turned out to be 93%.
For the molecule `O=C(c1cnc(Nc2ccc(F)c(Cl)c2)c2c1C1CCC2C1)N1CCS(=O)(=O)CC1` (stereo not shown) [Example 119-2], the inhibition in vivo at 0.3 mg/kg in assay [2] turned out to be 49%. Also, the inhibition at 0.03 µM in assay [1] came to 91%.
As to `CC1(C)CCCC(Nc2ncc(C(=O)N3CCS(=O)(=O)CC3)c3c2CCCC3)C1` (stereo not shown) [Example 38], the inhibition at 0.03 µM in assay [1] amounted to 77%.
The same measure, in the same setting: the result for `Cc1ccc(Nc2cnc(C(=O)N3CCS(=O)(=O)CC3)c3c2C2CCC3CC2)cc1Cl` [Example 167] reads 115%.
On to `O=C(c1cnc(Nc2cccc(Cl)c2)c2c1CCCC2)N1CCS(=O)(=O)CC1` [Example 30], for which the inhibition in vivo at 0.1 mg/kg in assay [2] amounted to 17%. Also, the inhibition at 0.03 µM in assay [1] stood at 82%.
Regarding `O=C(c1ncc(Nc2cccc(Cl)c2)c2c1C1CCC2C1)N1CCS(=O)(=O)CC1` (stereo not shown) [Example 94-1], the inhibition at 0.03 µM in assay [1] is 97%.
Consider `O=C(c1cnc(Nc2ccc(F)c(C(F)(F)F)c2)c2c1C1CCC2C1)N1CCS(=O)(=O)CC1` (stereo not shown) [Example 133-2], for which the inhibition in vivo at 0.3 mg/kg in assay [2] is 39%. Further, the inhibition at 0.03 µM in assay [1] came to 90%.
Take `O=C(c1cnc(Nc2ccc(F)c(F)c2)c2c1C1CCC2CC1)N1CCS(=O)(=O)CC1` [Example 138]: the inhibition in vivo at 0.3 mg/kg in assay [2] is 54%. For the same molecule, the inhibition at 0.03 µM in assay [1] worked out at 97%.
Take `Cc1ccc(F)c(Nc2cnc(C(=O)N3CCS(=O)(=O)CC3)c3c2C2CCC3CC2)c1` [Example 165]: the inhibition at 0.03 µM in assay [1] was determined as 111%.
With `O=C(c1cnc(Nc2cccc(OC(F)(F)F)c2)c2c1CCCC2)N1CCOCC1` [Example 16], the inhibition in vivo at 0.1 mg/kg in assay [2] was determined as 29%. The inhibition at 0.03 µM in assay [1] was 87%.
For `O=C(c1ncc(Nc2ccc(F)c(C(F)(F)F)c2)c2c1C1CCC2CC1)N1CCS(=O)(=O)CC1` [Example 129], in assay [1], the inhibition at 0.03 µM amounted to 95%.
As to `O=C(c1ncc(Nc2cccc(Cl)c2)c2c1C1CCC2CC1)N1CCS(=O)(=O)CC1` [Example 98], the inhibition at 0.03 µM in assay [1] was determined as 96%.
On to `O=C(c1ncc(Nc2cccc(Cl)c2)c2c1CCCC2)N1CCS(=O)(=O)CC1` [Example 10], for which the inhibition in vivo at 0.1 mg/kg in assay [2] worked out at 30%. For the same molecule, the inhibition at 0.03 µM in assay [1] turned out to be 73%.
Consider `O=C(c1cnc(Nc2cccc(Cl)c2)c2c1C1CCC2C1)N1CCS(=O)(=O)CC1` (stereo not shown) [Example 117-2], for which the inhibition at 0.03 µM in assay [1] came out at 100%.
As to `O=C(c1cnc(Nc2cccc(OC(F)(F)F)c2)c2c1C1CCC2C1)N1CCS(=O)(=O)CC1` (stereo not shown) [Example 120-2], the inhibition in vivo at 0.3 mg/kg in assay [2] was 34%. Also, in assay [1], the inhibition at 0.03 µM came to 105%.
With `O=C(c1cnc(Oc2cccc(C(F)(F)F)c2)c2c1CCCC2)N1CCS(=O)(=O)CC1` [Example 52], the inhibition at 0.03 µM in assay [1] is 96%.
On to `O=C(c1cnc(N[C@@H]2C[C@H]3CC[C@@H]2C3)c2c1CCCC2)N1CCOCC1` [Example 11], for which the inhibition at 0.03 µM in assay [1] was found to be 77%.
Still for that read-out and setting: the result for `O=C(c1ncc(Nc2cccc(OC(F)(F)F)c2)c2c1C1CCC2CC1)N1CCS(=O)(=O)CC1` [Example 125] reads 100%; that for `O=C(c1cnc(Nc2cc(F)cc(Cl)c2)c2c1C1CCC2CC1)N1CCS(=O)(=O)CC1` [Example 179], 100%.
`O=C(c1ncc(Nc2cccc(C(F)(F)F)c2)c2c1CCCC2)N1CCS(=O)(=O)CC1` [Example 36]: the inhibition in vivo at 0.1 mg/kg in assay [2] was determined as 49%. In assay [1], the inhibition at 0.03 µM stood at 82%.
`O=C(c1cnc(Nc2cccc(Cl)c2)c2c1C1CCC2CC1)N1CCS(=O)(=O)CC1` [Example 101]: the inhibition at 0.03 µM in assay [1] came out at 99%.
With `O=C(c1cnc(Nc2cccc(C(F)(F)F)c2)c2c1C1CCC2CC1)N1CCS(=O)(=O)CC1` [Example 112], the inhibition at 0.03 µM in assay [1] stood at 103%.
On the same count and under the same terms, the result for `Cc1cccc(Nc2cnc(C(=O)N3CCS(=O)(=O)CC3)c3c2C2CCC3CC2)c1F` [Example 164] reads 119%.
